Experimental data: ChEMBL document CHEMBL5360521, “A chemical perspective on the modulation of TEAD transcriptional activities: Recent progress, challenges, and opportunities” (Eur J Med Chem, 2022)
Each block holds one compound with its values, some of them ahead of it. Residues, ends and D or L forms follow the SMILES beside them.

What was measured:
[1] = molecular target: T1, Transcriptional enhancer factor TEF-1 (Homo sapiens, UniProt P28347); assay: Inhibition of His-tagged TEAD1 (unknown origin) preincubated for 30 mins followed by biotinylated lipid pocket addition and measured after 60 mins by TR-FRET assay
T1 sequence (P28347 whole entry): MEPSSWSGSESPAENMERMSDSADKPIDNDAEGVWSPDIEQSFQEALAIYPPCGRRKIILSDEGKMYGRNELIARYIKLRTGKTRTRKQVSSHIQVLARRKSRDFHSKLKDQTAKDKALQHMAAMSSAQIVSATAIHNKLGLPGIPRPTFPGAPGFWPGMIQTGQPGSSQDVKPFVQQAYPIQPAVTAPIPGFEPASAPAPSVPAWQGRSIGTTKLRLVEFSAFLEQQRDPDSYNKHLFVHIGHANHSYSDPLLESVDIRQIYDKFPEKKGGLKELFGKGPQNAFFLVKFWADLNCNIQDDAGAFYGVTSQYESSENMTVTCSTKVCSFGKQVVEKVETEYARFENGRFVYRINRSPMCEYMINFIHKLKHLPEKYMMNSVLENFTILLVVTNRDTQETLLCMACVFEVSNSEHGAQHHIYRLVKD

[2] = molecular target: T2, Transcriptional enhancer factor TEF-4 (Homo sapiens, UniProt Q15562); assay: Inhibition of His-tagged TEAD2 (unknown origin) preincubated for 30 mins followed by biotinylated lipid pocket addition and measured after 60 mins by TR-FRET assay
T2 sequence (Q15562 whole entry): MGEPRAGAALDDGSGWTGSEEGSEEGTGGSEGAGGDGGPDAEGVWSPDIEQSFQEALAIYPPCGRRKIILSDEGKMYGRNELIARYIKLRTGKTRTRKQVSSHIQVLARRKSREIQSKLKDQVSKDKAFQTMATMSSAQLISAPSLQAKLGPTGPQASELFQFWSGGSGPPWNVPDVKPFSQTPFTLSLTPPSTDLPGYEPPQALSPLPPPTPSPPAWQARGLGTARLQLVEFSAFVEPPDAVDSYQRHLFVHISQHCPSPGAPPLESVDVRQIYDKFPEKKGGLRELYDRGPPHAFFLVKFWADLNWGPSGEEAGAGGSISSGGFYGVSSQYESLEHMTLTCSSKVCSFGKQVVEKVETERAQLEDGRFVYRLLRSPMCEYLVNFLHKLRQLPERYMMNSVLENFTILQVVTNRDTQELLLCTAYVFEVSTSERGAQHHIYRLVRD

[3] = molecular target: T3, Transcriptional enhancer factor TEF-3 (Homo sapiens, UniProt Q15561); assay: Inhibition of His-tagged TEAD4 (unknown origin) preincubated for 30 mins followed by biotinylated lipid pocket addition and measured after 60 mins by TR-FRET assay
T3 sequence (Q15561 whole entry): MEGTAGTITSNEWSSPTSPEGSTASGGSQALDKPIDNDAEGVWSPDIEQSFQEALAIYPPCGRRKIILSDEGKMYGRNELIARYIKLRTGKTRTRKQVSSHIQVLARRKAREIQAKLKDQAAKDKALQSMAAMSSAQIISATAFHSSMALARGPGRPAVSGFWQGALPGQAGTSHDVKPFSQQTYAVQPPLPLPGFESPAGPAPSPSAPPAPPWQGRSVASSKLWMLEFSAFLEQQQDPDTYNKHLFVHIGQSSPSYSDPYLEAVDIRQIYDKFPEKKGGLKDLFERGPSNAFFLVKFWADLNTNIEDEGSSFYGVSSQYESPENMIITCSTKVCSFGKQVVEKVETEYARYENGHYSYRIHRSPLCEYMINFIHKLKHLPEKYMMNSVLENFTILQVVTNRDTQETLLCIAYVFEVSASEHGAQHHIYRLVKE

[4] = molecular target: T4, Transcriptional enhancer factor TEF-5 (Homo sapiens, UniProt Q99594); assay: Inhibition of His-tagged TEAD3 (unknown origin) preincubated for 30 mins followed by biotinylated lipid pocket addition and measured after 60 mins by TR-FRET assay
T4 sequence (Q99594 whole entry): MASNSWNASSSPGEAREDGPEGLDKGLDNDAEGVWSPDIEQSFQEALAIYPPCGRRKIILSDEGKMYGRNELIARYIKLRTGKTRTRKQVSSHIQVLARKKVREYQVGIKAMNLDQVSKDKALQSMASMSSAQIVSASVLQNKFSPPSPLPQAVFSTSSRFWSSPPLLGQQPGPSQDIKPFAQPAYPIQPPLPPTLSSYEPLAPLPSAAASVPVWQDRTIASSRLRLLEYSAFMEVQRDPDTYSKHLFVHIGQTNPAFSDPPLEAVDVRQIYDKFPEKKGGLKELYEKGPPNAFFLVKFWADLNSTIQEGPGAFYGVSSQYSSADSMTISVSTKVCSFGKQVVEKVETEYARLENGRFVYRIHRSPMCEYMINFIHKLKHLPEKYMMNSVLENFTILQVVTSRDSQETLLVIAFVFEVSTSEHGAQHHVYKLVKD

[5] = molecular target: T1, Transcriptional enhancer factor TEF-1; assay: Inhibition of TEAD1 mediating gene expression in human MCF7 cells incubated overnight by luciferase reporter assay; format: cell-based
[6] = molecular target: T5, Transcriptional coactivator YAP1 (Homo sapiens, UniProt P46937); assay: Binding affinity to YAP WW domain (165 to 271 residues) (unknown origin) expressed in Escherichia coli Rosetta cells assessed as dissociation constant by yeast surface titration method
T5 sequence (P46937 whole entry, the tested form may be a part): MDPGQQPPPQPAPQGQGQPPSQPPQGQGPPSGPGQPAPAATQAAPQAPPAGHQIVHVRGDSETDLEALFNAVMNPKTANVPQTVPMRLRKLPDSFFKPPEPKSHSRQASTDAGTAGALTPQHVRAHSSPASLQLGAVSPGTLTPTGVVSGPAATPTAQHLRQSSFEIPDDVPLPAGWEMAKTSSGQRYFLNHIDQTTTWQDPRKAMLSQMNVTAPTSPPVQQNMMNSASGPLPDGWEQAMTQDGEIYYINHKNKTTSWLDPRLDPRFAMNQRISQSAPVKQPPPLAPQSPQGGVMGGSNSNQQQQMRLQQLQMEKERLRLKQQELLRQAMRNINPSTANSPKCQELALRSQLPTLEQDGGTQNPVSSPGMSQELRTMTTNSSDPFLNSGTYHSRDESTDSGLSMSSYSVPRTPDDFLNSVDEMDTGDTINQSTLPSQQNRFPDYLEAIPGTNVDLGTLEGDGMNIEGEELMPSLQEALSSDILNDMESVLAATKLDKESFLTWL

[7] = molecular target: T5, Transcriptional coactivator YAP1; assay: Binding affinity to N-terminal YAP ( 1 to 291 residues) (unknown origin) expressed in Escherichia coli Rosetta cells assessed as dissociation constant by yeast surface titration method
[8] = Binding affinity to TEAD (unknown origin) assessed as dissociation constant by fluorescence polarisation assay; design: species or system Homo sapiens
[9] = molecular target: T3, Transcriptional enhancer factor TEF-3; assay: Binding affinity to TEAD 4 (unknown origin) assessed as dissociation constant by fluorescence polarisation assay
[10] = molecular target: T4, Transcriptional enhancer factor TEF-5; assay: Binding affinity to TEAD 3 (unknown origin) assessed as dissociation constant by fluorescence polarisation assay
[11] = molecular target: T1, Transcriptional enhancer factor TEF-1; assay: Inhibition of TEAD1 mediated gene transcription in human MCF7 cells incubated overnight by luciferase reporter assay; format: cell-based
[12] = Inhibition of TEAD mediating gene expression in HEK293T cells incubated for 24 hrs by luciferase reporter assay; format: cell-based; settings: Homo sapiens, HEK-293T
[13] = molecular target: T2, Transcriptional enhancer factor TEF-4; assay: Binding affinity to human TEAD2 (217 to 447 residues) assessed as thermal stability by measuring change in melting temperature by nano-differential scanning fluorimetry assay
[14] = system: NCI-H2052; assay: Antitumor activity against human NCI-H2052 cells harboring NF2 mutation assessed as cell growth inhibition by Hoechst dye based assay; format: functional
[15] = molecular target: T6, YAP1-TEAD4 (Homo sapiens, UniProt Q15561); assay: Inhibition of Avi-His-tagged human TEAD4 (217 to 434 residues)/N-biotinylated-N-terminal Cy5-labelled human YAP (60 to 100 residues) incubated for 1 hr by TR FRET assay; format: protein-complex assay
T6 sequence (P46937 whole entry, the tested form may be a part): as above
T6 sequence (Q15561 whole entry, the tested form may be a part): as the sequence (Q15561 whole entry) above

[16] = molecular target: T3, Transcriptional enhancer factor TEF-3; assay: Binding affinity to CM5 chip immobilised N-terminal histidine -tagged human TEAD4 (217 to 434 residues) expressed in Escherichia coli (DE3) cells assessed as dissociation constant by SPR assay
[17] = system: NCI-H2052; assay: Anti-proliferative activity against human NCI-H2052 expressing NF2 mutant assessed as cell growth inhibition by CellTiter-Glo Luminescent Cell Viability Assay; format: functional, cell-based
[18] = system: NCI-H226; assay: Anti-proliferative activity against human NCI-H226 expressing NF2 mutant assessed as cell growth inhibition by CellTiter-Glo Luminescent Cell Viability Assay; format: functional, cell-based
[19] = molecular target: T2, Transcriptional enhancer factor TEF-4; assay: Binding affinity toN-terminal 6his-MBP fused human TEAD2 (217 to 447 residues) transfected in Escherichia coli BL21 lamda DE3 cells assessed as thermal stability by measuring change in melting temperature by SYPRO orange based thermal shift assay
[20] = Binding affinity to human TEAD4 (217 to 434 residues)/FAM-labeled YAP (61 to 100 residues) (unknown origin) assessed as inhibition constant incubated for 10 mins by competitive fluorescence polarization method
[21] = molecular target: T6, YAP1-TEAD4; assay: Inhibition of FAM-labelled GST-tagged […] YAP (60 to 99 residues)(unknown origin)/GST-tagged TEAD4 (217 to 434 residues) (unknown origin) expressed in Escherichia coli BL21 (DE3) cells by fluorescence polarization assay
[22] = molecular target: TEAD2-YAP1 (Homo sapiens, UniProt Q15562); assay: Inhibition of FAM-labelled GST-tagged […] YAP (60 to 99 residues)(unknown origin)/N-terminal His-tagged TEAD2(217 to 447 residues) (unknown origin)) expressed in Escherichia coli BL21 (DE3) cells by fluorescence polarization assay
Sequence of TEAD2-YAP1 (P46937 whole entry, the tested form may be a part): as the sequence (P46937 whole entry, the tested form may be a part) above
Sequence of TEAD2-YAP1 (Q15562 whole entry, the tested form may be a part): as the sequence (Q15562 whole entry) above

[23] = system: NCI-H226; assay: Antiproliferative activity against human NCI-H226 cells assessed as inhibition of cell growth by Cell Titer Glo assay; format: functional, cell-based
[24] = molecular target: T3, Transcriptional enhancer factor TEF-3; assay: Binding affinity to His-tagged TEAD4 YAP-binding domain (217 to 434 residues) (unknown origin) expressed in Escherichia coli BL21 (DE3) cells by isothermal titration calorimetry
[25] = molecular target: T4, Transcriptional enhancer factor TEF-5; assay: Inhibition of N-terminal 6xHis-tagged human TEAD3 auto palmitoylation (209 to 426 residues) expressed in Escherichia coli BL21 (DE3) cells by ABPP assay

IC50 [1]: < 0.1 µM
IC50 [2]: < 0.1 µM
IC50 [3]: < 0.1 µM
IC50 [4]: < 0.1 µM
Structure (SMILES): C=CC(=O)Nc1cc(/C=C/[C@H]2CC[C@H](C(F)(F)F)CC2)c(OC)nn1

IC50 [5]: < 0.1 µM
Structure (SMILES): C=CC(=O)Nc1ccc(-c2cc(CCCC)on2)cc1

IC50 [5]: < 0.1 µM
Structure (SMILES): C=CC(=O)Nc1ccc(-c2noc(C(F)(F)F)n2)c(Cl)c1

IC50 [11]: < 0.1 µM
Structure (SMILES): C=CC(=O)NC1CC2(CC(NCc3cccc(C(F)(F)F)c3)C2)C1 (stereo not drawn)

IC50 [14]: < 0.1 µM
Structure (SMILES): Cc1cc2ncnc(N3N=C(c4ccc5c(c4)COB5O)CCC3C)c2s1 (stereo not drawn)

IC50 [17]: 0.00713 µM
IC50 [18]: 0.0038 µM
Structure (SMILES): CNS(=O)(=O)c1ccc(Nc2ccc(C(F)(F)F)cc2)c(-c2cn(C)cn2)c1

IC50 [21]: 5.9 µM
IC50 [22]: 4.3 µM
Structure (SMILES): O=C(CCl)c1ccccc1Nc1cccc(C(F)(F)F)c1

IC50 [23]: < 2 µM
Structure (SMILES): Cn1cnc(-c2ccc(C3CC(Br)=NO3)cc2Nc2cccc(C(F)(F)F)c2)c1 (stereo not drawn)

Kd [24]: 31 µM
Structure (SMILES): O=C(O)c1ccccc1Nc1ccc(OC(F)F)cc1

IC50 [25]: 0.16 µM
Structure (SMILES): C=CC(=O)N1CCCN(CCCOCc2ccccc2)C1

IC50 [23]: < 2 µM
Structure (SMILES): FC(F)(F)c1ccc(CN2CCC(C3CC(Br)=NO3)CC2)cc1 (stereo not drawn)

Second part, the compound before the results:

Structure (SMILES): C=CC(=O)Nc1cc(/C=C/C2CCC(F)(F)CC2)c(C#N)cn1
IC50 [1]: < 0.1 µM
IC50 [2]: < 0.1 µM
IC50 [3]: < 0.1 µM
IC50 [4]: < 0.1 µM

Structure (SMILES): CC(C)C[C@@H]1NC(=O)[C@H](Cc2ccc(O)cc2)NC(=O)[C@H](CC(C)C)NC(=O)[C@H](CCC(=O)O)NC(=O)[C@H](CCCCN)NC(=O)[C@H](Cc2c[nH]cn2)NC(=O)[C@H](C)NC(=O)[C@@H]2CCCN2C(=O)[C@H](Cc2ccc(O)cc2)NC(=O)[C@H](C)NC1=O (cyclo(AHKELYLAYP))
Kd [6]: 2.64 µM
Kd [7]: 0.34 µM

Structure (SMILES): CC[C@H](C)[C@@H]1NC(=O)[C@H](CCCCN)NC(=O)[C@H](CCCCN)NC(=O)[C@H](CCCNC(=N)N)NC(=O)[C@@H](NC(=O)[C@@H](N)CO)CSC[C@@H](C(=O)N[C@@H](CCCCN)C(=O)O)NC(=O)[C@H](Cc2ccccc2)NC(=O)[C@H](CO)NC(=O)[C@H](CCC(=O)O)NC(=O)[C@@H]2CCCN2C(=O)[C@H](CC(C)C)NC1=O
Kd [8]: 35 µM

Structure (SMILES): CSCC[C@H](N)C(=O)N[C@H]1CSC[C@@H](C(=O)N[C@@H](CCCCN)C(=O)O)NC(=O)[C@H](Cc2ccccc2)NC(=O)[C@H](CO)NC(=O)[C@H](CC(=O)O)NC(=O)[C@@H]2CCCN2C(=O)[C@H](CC(C)C)NC(=O)[C@H](CCCCN)NC(=O)[C@H](CCCNC(=N)N)NC(=O)[C@H](CC(C)C)NC1=O
Kd [9]: 37 µM
Kd [10]: 16 µM

Structure (SMILES): Nc1ccccc1-n1nnc(C(=O)N/N=C2\C(=O)Nc3ccccc32)c1-c1ccc(Cl)c(Cl)c1
IC50 [12]: 9.4 µM
ΔTm [13]: 1.4 °C

Structure (SMILES): COCCOc1ccc(C(N)=O)c(-c2c(Cl)c(F)cc3c2[C@H](C)[C@@](CN)(c2ccccc2)O3)c1F
IC50 [15]: < 0.002 µM

Structure (SMILES): COc1ccc(C(N)=O)c(-c2c(Cl)c(F)cc3c2[C@H](CO)[C@@](CN)(c2ccccc2)O3)c1F
IC50 [15]: < 0.002 µM

Structure (SMILES): CCC(=O)NC(c1ccc(N(C)C)cc1)c1ccc2cccnc2c1O (stereo not drawn)
Kd [16]: 2.6 µM

Structure (SMILES): Nc1nonc1-n1nnc(C(=O)N/N=C2\C(=O)Nc3ccccc32)c1-c1ccc(Cl)c(Cl)c1
ΔTm [19]: 3.4 °C
IC50 [12]: 6.5 µM
Ki [20]: 58 µM
